Columns and labels:
[1] = molecular target: T1, m-calpain (Rattus norvegicus, UniProt Q07009); assay: Fluorimetric FRET-substrate assay of m-calpain inhibition; type: biochemical; details: inhibitor 1 μM; 125 nM m-calpain; 1.3 μM (EDANS)-EPLFAERK-(DABCYL); 4 mM CaCl2; FIG. 1A
T1 sequence (Q07009 1-700): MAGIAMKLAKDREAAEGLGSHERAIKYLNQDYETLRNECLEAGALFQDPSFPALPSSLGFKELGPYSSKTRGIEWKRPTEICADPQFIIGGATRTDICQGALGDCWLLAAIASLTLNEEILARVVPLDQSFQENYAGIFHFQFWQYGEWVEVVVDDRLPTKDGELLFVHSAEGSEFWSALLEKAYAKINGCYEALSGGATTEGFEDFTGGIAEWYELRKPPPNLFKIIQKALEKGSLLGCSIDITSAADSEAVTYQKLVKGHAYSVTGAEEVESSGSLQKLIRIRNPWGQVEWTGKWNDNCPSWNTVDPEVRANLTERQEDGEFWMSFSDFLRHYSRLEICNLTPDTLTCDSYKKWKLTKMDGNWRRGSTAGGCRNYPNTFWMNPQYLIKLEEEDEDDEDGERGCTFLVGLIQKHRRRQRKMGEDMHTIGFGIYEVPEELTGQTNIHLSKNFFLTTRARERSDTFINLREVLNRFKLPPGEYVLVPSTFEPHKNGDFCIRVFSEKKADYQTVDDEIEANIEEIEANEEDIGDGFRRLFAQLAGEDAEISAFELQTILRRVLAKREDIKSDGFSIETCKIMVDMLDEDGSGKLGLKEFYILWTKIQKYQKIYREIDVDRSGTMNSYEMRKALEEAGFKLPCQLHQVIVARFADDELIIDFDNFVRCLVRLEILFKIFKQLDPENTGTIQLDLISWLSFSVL
T1 sequence (Q64537 87-270 partner limits assumed): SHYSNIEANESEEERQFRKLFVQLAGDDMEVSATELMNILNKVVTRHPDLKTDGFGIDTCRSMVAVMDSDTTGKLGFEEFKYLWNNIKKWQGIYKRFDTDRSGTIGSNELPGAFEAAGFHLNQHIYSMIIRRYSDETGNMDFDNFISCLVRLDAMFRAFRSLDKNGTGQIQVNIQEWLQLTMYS
Description: (§1) FIG. 1 is a pair of graphs showing the inhibitory effect of Z-Leu-Abu-CONH—(CH2)3-adenin-9-yl, and Z-Leu-Abu-CONH—(CH2)3-(4-methylpiperazin-1-yl) on m-calpain (FIG. 1A) and μI-II (FIG. 1B). Duplicate assays were performed by adding 1.3 μM (EDANS)-EPLFAERK(SEQ ID NO:1)-(DABCYL) (A), 125 nM calpain (B), and 4 mM CaCl2 (C), then averaged to yield the plots shown. Autolytic inactivation of m-calpain, but not μI-II, was observed when no inhibitor was added (X). Immediately following addition of each inhibitor (D), the increase in fluorescence intensity was attenuated.
(§2) Enzymatic activity was monitored in real-time using a 1.5 mL quartz cuvette and a Perkin-Elmer LS50-B Luminescence Spectrophotometer. Duplicate assays were performed with 1.3 μM (EDANS)-EPLFAERK(SEQ ID NO:1)-(DABCYL) and 125 nM μI-II or m-calpain in a buffer solution containing 50 mM HEPES-HCl (pH 7.7) and 10 mM DTT. The reaction was initiated 420 seconds after mixing by the addition of 4 mM CaCl2 and monitored at excitation and emission wavelengths of 335 nm and 500 nm, respectively. After a waiting period of 100 seconds, the inhibitor solution (either Z-Leu-Abu-CONH—(CH2)3-adenin-9-yl, or Z-Leu-Abu-CONH—(CH2)3-(4-methylpiperazin-1-yl) dissolved in DMSO) was added at a concentration of 1 μM (for the m-calpain assays) or 50 μM (for the μI-II assays). […]

[2] = molecular target: μI-II (Rattus norvegicus, UniProt P97571); assay: Fluorimetric FRET-substrate assay of μI-II inhibition; type: biochemical; details: inhibitor 50 μM; 125 nM μI-II; 1.3 μM (EDANS)-EPLFAERK-(DABCYL); 4 mM CaCl2; FIG. 1B
Description: as §1, §2

[3] = molecular target: T2, calpain I (Homo sapiens, UniProt P07384); details: literature statement; cited from earlier work
T2 sequence (P07384 1-714): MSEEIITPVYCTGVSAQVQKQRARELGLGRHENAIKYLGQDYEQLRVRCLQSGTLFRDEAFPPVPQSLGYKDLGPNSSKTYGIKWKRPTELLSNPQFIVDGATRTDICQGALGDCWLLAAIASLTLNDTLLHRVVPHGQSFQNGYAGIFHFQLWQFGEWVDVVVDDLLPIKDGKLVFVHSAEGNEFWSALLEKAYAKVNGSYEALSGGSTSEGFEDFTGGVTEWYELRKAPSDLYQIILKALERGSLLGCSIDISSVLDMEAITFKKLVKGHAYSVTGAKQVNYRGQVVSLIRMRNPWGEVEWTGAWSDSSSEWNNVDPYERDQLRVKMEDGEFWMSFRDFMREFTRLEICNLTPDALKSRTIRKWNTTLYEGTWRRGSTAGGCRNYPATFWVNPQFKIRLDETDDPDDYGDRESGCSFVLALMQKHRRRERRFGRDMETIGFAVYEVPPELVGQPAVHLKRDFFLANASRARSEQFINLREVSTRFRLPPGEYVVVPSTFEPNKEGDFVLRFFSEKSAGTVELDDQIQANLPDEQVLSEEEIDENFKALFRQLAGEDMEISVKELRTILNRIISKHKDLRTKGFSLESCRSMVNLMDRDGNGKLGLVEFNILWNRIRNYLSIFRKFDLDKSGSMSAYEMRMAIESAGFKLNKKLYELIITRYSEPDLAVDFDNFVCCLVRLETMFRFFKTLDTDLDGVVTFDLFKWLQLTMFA
T2 sequence (P04632 1-268 partner): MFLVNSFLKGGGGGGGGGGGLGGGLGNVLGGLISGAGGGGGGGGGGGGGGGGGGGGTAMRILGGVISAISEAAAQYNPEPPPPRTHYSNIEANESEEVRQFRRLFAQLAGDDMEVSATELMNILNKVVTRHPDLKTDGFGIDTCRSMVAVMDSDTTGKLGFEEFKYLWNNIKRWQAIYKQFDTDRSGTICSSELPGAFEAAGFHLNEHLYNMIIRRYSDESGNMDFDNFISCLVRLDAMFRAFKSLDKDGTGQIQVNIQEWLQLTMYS

[4] = test system: other cysteine proteases such as cathepsins; details: literature statement; cited from earlier work
[5] = test system: calpain II; details: literature statement; cited from earlier work

μI-II, sequence (P97571 55-354 limits assumed): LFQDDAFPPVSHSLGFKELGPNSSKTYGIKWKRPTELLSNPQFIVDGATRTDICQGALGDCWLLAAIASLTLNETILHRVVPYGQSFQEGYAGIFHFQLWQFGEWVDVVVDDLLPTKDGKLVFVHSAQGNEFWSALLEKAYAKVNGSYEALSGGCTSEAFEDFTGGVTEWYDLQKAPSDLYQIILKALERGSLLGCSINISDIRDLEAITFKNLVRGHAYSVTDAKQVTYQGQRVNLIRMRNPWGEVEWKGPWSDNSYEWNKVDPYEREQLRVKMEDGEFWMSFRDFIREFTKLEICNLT

Structure (SMILES): CCC(NC(=O)[C@H](CC(C)C)NC(=O)OCc1ccccc1)C(=O)C(=O)NCCCN1CCN(C)CC1 (stereo partly drawn) [3-(Benzyloxycarbonyl-L-leucylamino)-N-(3-(4-methylpiperazin-1-yl)propyl)-2-oxopentanamide]
- attenuation of the increase in fluorescence intensity (cleavage of FRET substrate) by m-calpain [1]: immediately attenuated
- attenuation of the increase in fluorescence intensity (cleavage of FRET substrate) by μI-II [2]: immediately attenuated

Structure (SMILES): CCC(NC(=O)[C@H](CC(C)C)NC(=O)OCc1ccccc1)C(=O)C(=O)NCCCN1CCOCC1 (stereo partly drawn) [AK295, Z-Leu-Abu-CONH—(CH2)3-4-morpholinyl]
- inhibition of calpain I [3]: potent transition-state inhibitor
- inhibitory activity toward other cysteine proteases such as cathepsins [4]: some inhibitory activity
- inhibition of calpain II [5]: potent transition-state inhibitor

Structure (SMILES): CCC(NC(=O)[C@H](CC(C)C)NC(=O)OCc1ccccc1)C(=O)C(=O)NCCCn1cnc2c(N)ncnc21 (stereo partly drawn) [Z-Leu-Abu-CONH—(CH2)3-adenin-9-yl, 3-(Benzyloxycarbonyl-L-leucylamino)-N-(3-(6-amino-9H-purin-9-yl)propyl)-2-oxopentanamide]
- attenuation of the increase in fluorescence intensity (cleavage of FRET substrate) by m-calpain [1]: more distinct attenuation of fluorescence
- attenuation of the increase in fluorescence intensity (cleavage of FRET substrate) by μI-II [2]: more distinct attenuation of fluorescence

From patent publication US8518885B2, “Heterocyclic peptide ketoamides” (Georgia Tech Research Corporation, priority 2008, dated 2013)
